Molecular target: human TRPA1 (Homo sapiens (Human), UniProt O75762)
Assay: In vitro inhibition of human TRPA1, whole cell patch configuration
Format: cell-based
Details: current activation 10 μM AITC, tested concentrations 320 pM to 3.2 μM, read-out: hTRPA1 IC50
Experimental: All currents were recorded in whole-cell configuration using EPC-9 and EPC-10 amplifiers and Patchmaster software (HEKA) or similar. […] The standard bath solution contained 150 mM NaCl, 10 mM HEPES, 10 mM glucose, 4.5 mM KCl, 1 mM EGTA, 3 mM MgCl2, with pH adjusted to 7.4 with NaOH. In some instances, 2 mM CaCl2 was added in place of EGTA and the concentration of MgCl2 was reduced to 1 mM.
Data were collected either by continuous recordings at −60 mV or by applying voltage ramps from a holding potential of −40 mV every 4 s. Continuous recordings were collected at 400 Hz and digitally filtered off-line at 10 Hz for presentation. Voltage ramps were applied from −100 mV or −80 mV to +100 mV or +80 mV over the course of 400 ms, and data were collected at 10 kHz and filtered at 2.9 kHz. Inward and outward currents were analyzed from the ramps at −80 and 80 mV, respectively. Liquid junction potential correction was not used.
Solutions were switched using a gravity-fed continuous focal perfusion system. To achieve rapid temperature changes, two temperature control, and perfusion systems were employed simultaneously. […] Temperatures were confirmed using a thermistor (Warner Instruments, TA-29), with temperatures at the recorded cell estimated to be within +/−2° C. of those reported.
The antagonist effects of compounds of Formula (I) against human TRPA1 (“hTRPA1”) in a whole cell patch configuration were evaluated using the in vitro assay described above.

human TRPA1, sequence (O75762 whole entry): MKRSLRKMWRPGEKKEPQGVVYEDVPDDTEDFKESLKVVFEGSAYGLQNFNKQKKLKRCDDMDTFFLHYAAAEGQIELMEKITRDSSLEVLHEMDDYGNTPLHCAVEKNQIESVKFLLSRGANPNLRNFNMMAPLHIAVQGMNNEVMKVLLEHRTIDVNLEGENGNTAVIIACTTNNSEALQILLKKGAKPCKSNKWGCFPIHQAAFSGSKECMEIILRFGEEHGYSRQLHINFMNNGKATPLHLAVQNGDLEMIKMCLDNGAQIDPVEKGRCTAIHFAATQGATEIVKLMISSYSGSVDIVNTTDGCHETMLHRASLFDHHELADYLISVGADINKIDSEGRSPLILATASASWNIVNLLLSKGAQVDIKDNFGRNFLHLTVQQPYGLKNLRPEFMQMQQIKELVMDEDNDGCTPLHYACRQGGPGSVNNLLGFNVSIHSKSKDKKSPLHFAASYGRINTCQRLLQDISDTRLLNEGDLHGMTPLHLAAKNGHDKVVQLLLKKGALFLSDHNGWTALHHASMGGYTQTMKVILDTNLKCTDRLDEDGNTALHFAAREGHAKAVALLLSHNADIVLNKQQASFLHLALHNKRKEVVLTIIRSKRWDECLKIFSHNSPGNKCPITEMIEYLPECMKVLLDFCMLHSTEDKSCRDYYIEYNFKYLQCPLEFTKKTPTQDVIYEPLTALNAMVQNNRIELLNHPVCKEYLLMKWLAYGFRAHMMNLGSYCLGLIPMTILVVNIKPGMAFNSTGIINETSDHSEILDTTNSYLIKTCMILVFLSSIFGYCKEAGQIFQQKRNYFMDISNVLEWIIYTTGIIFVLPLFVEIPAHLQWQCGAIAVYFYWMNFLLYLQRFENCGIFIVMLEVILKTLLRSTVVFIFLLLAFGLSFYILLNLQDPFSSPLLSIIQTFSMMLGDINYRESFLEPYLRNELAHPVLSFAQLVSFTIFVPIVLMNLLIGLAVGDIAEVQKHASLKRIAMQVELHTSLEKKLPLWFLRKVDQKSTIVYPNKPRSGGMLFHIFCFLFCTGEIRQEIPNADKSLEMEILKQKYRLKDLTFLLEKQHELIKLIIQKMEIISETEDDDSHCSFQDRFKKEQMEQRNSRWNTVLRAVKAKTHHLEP

SMILES	IC50 [nM]
CC(=O)Cn1c(=O)c2c(ncn2[C@@H](C)C(=O)Nc2csc(-c3cnc(C(F)(F)F)nc3)n2)n(C)c1=O [Compound 31, (S)-2-(3-methyl-2,6-dioxo-1-(2-oxopropyl)-2,3-dihydro-1H-purin-7(6H)-yl)-N-(2-(2-(trifluoromethyl)pyrimidin-5-yl)thiazol-4-yl)propanamide]	16
C[C@@H](C(=O)Nc1cccc(-c2ccc(N3CC4CC4C3)nc2)n1)n1cnc2c1c(=O)n(CC#N)c(=O)n2C (stereo partly drawn) [Compound 35, (2S)—N-(6′-(3-azabicyclo[3.1.0]hexan-3-yl)-2,3′-bipyridin-6-yl)-2-(1-(cyanomethyl)-3-methyl-2,6-dioxo-2,3-dihydro-1H-purin-7(6H)-yl)]	6
C[C@@H](C(=O)Nc1cncc(-c2cnc(N3CCC[C@@H]3C(F)(F)F)nc2)n1)n1cnc2c1c(=O)n(CC#N)c(=O)n2C [Compound 40, (S)-2-(1-(cyanomethyl)-3-methyl-2,6-dioxo-2,3-dihydro-1H-purin-7(6H)-yl)-N-(6-(2-((R)-2-(trifluoromethyl)pyrrolidin-1-yl)pyrimidin-5-yl)pyrazin-2-yl)propanamide]	8
CC(=O)Cn1c(=O)c2c(ncn2[C@@H](C)C(=O)Nc2cncc(-c3ccc(N4CC5CC5C4)nc3)n2)n(C)c1=O (stereo partly drawn) [Compound 41, (2S)—N-(6-(6-(3-azabicyclo[3.1.0]hexan-3-yl)pyridin-3-yl)pyrazin-2-yl)-2-(3-methyl-2,6-dioxo-1-(2-oxopropyl)-2,3-dihydro-1H-purin-7(6H)-yl)propanamide]	12
C[C@@H](C(=O)Nc1cncc(-c2ccc(N3CC4CC4C3)nc2)n1)n1cnc2c1c(=O)n(CC#N)c(=O)n2C (stereo partly drawn) [Compound 43, (2S)—N-(6-(6-(3-azabicyclo[3.1.0]hexan-3-yl)pyridin-3-yl)pyrazin-2-yl)-2-(1-(cyanomethyl)-3-methyl-2,6-dioxo-2,3-dihydro-1H-purin-7(6H)-yl)propanamide]	8
CC(=O)Cn1c(=O)c2c(ncn2[C@@H](C)C(=O)Nc2cccc(-c3ccc(N4CC5CC5C4)nc3)n2)n(C)c1=O (stereo partly drawn) [Compound 44, (2S)—N-(6′-(3-azabicyclo[3.1.0]hexan-3-yl)-2,3′-bipyridin-6-yl)-2-(3-methyl-2,6-dioxo-1-(2-oxopropyl)-2,3-dihydro-1H-purin-7(6H)-yl)propanamide]	14
C[C@@H](C(=O)Nc1cccc(-c2cnc(N3CCC[C@H]3C(F)(F)F)nc2)n1)n1cnc2c1c(=O)n(CC#N)c(=O)n2C [Compound 45, (S)-2-(1-(cyanomethyl)-3-methyl-2,6-dioxo-2,3-dihydro-1H-purin-7(6H)-yl)-N-(6-(2-((S)-2-(trifluoromethyl)pyrrolidin-1-yl)pyrimidin-5-yl)pyridin-2-yl)propanamide]	4
CC(=O)Cn1c(=O)c2c(ncn2[C@@H](C)C(=O)Nc2ccnc(-c3ccc(N4CC5CC5C4)nc3)n2)n(C)c1=O (stereo partly drawn) [Compound 46, (2S)—N-(2-(6-(3-azabicyclo[3.1.0]hexan-3-yl)pyridin-3-yl)pyrimidin-4-yl)-2-(3-methyl-2,6-dioxo-1-(2-oxopropyl)-2,3-dihydro-1H-purin-7(6H)-yl)propanamide]	22
CCC(=O)Cn1c(=O)c2c(ncn2[C@@H](C)C(=O)Nc2ccnc(-c3ccc(N4CC5CC5C4)nc3)n2)n(C)c1=O (stereo partly drawn) [Compound 47, (2S)—N-(2-(6-(3-azabicyclo[3.1.0]hexan-3-yl)pyridin-3-yl)pyrimidin-4-yl)-2-(3-methyl-2,6-dioxo-1-(2-oxobutyl)-2,3-dihydro-1H-purin-7(6H)-yl)propanamide]	4

More lines, now with the values ahead:

IC50 [nM]	SMILES
1	C[C@@H](C(=O)Nc1csc(-c2cnc(N3CCC[C@H]3C(F)(F)F)nc2)n1)n1cnc2c1c(=O)n(CC#N)c(=O)n2C [Compound 28, (S)-2-(1-(cyanomethyl)-3-methyl-2,6-dioxo-2,3-dihydro-1H-purin-7(6H)-yl)-N-(2-(2-((S)-2-(trifluoromethyl)pyrrolidin-1-yl)pyrimidin-5-yl)thiazol-4-yl)propanamide]
1	C[C@@H](C(=O)Nc1csc(-c2ccc(Cl)c(Cl)c2)n1)n1cnc2c1c(=O)n(CC#N)c(=O)n2C [Compound 29, (S)-2-(1-(cyanomethyl)-3-methyl-2,6-dioxo-2,3-dihydro-1H-purin-7(6H)-yl)-N-(2-(3,4-dichlorophenyl)thiazol-4-yl)propanamide]
3	C[C@@H](C(=O)Nc1cccc(-c2cnc(N3CC4C(C3)C4(F)F)nc2)n1)n1cnc2c1c(=O)n(CC#N)c(=O)n2C (stereo partly drawn) [Compound 30, (2S)-2-(1-(cyanomethyl)-3-methyl-2,6-dioxo-2,3-dihydro-1H-purin-7(6H)-yl)-N-(6-(2-(6,6-difluoro-3-azabicyclo[3.1.0]hexan-3-yl)pyrimidin-5-yl)pyridin-2-yl)propanamide]
3	Cc1cc(Cn2c(=O)c3c(ncn3[C@@H](C)C(=O)Nc3csc(-c4cnc(C(F)(F)F)nc4)n3)n(C)c2=O)no1 [Compound 32, (S)-2-(3-methyl-1-((5-methylisoxazol-3-yl)methyl)-2,6-dioxo-2,3-dihydro-1H-purin-7(6H)-yl)-N-(2-(2-(trifluoromethyl)pyrimidin-5-yl)thiazol-4-yl)propanamide]
1	CCC(=O)Cn1c(=O)c2c(ncn2[C@@H](C)C(=O)Nc2csc(-c3ccc(N4CC5CC5C4)nc3)n2)n(C)c1=O (stereo partly shown) [Compound 33]
2	CCN(CC)c1ncc(-c2nc(NC(=O)[C@H](C)n3cnc4c3c(=O)n(Cc3cc(C)on3)c(=O)n4C)cs2)cn1 [Compound 36, (S)—N-(2-(2-(diethylamino)pyrimidin-5-yl)thiazol-4-yl)-2-(3-methyl-1-((5-methylisoxazol-3-yl)methyl)-2,6-dioxo-2,3-dihydro-1H-purin-7(6H)-yl)propanamide]
3	CCC(=O)Cn1c(=O)c2c(ncn2[C@@H](C)C(=O)Nc2cccc(-c3ccc(N4CC5CC5C4)nc3)n2)n(C)c1=O (stereo partly drawn) [Compound 37, (2S)—N-(6′-(3-azabicyclo[3.1.0]hexan-3-yl)-2,3′-bipyridin-6-yl)-2-(3-methyl-2,6-dioxo-1-(2-oxobutyl)-2,3-dihydro-1H-purin-7(6H)-yl)propanamide]
3	CCC(=O)Cn1c(=O)c2c(ncn2[C@@H](C)C(=O)Nc2csc(-c3cnc(N(CC)CC)nc3)n2)n(C)c1=O [Compound 38, (S)—N-(2-(2-(diethylamino)pyrimidin-5-yl)thiazol-4-yl)-2-(3-methyl-2,6-dioxo-1-(2-oxobutyl)-2,3-dihydro-1H-purin-7(6H)-yl)propanamide]
3	C[C@@H](C(=O)Nc1cccc(-c2cnc(N3CCC[C@@H]3C(F)(F)F)nc2)n1)n1cnc2c1c(=O)n(CC#N)c(=O)n2C [Compound 39, (S)-2-(1-(cyanomethyl)-3-methyl-2,6-dioxo-2,3-dihydro-1H-purin-7(6H)-yl)-N-(6-(2-((R)-2-(trifluoromethyl)pyrrolidin-1-yl)pyrimidin-5-yl)pyridin-2-yl)propanamide]
4	CCC(=O)Cn1c(=O)c2c(ncn2[C@@H](C)C(=O)Nc2cncc(-c3ccc(N4CC5CC5C4)nc3)n2)n(C)c1=O (stereo partly drawn) [Compound 42, (2S)—N-(6-(6-(3-azabicyclo[3.1.0]hexan-3-yl)pyridin-3-yl)pyrazin-2-yl)-2-(3-methyl-2,6-dioxo-1-(2-oxobutyl)-2,3-dihydro-1H-purin-7(6H)-yl)propanamide]

Source: US10221177B2 (HYDRA BIOSCIENCES, INC., priority 2014, dated 2019)
